# Test results taken from US20100168102A9, “Amide Derivatives as Kinase Inhibitors” (Devgen NV, priority 2005, published 2010).
# Where two headings read alike, the source gives them in different places.
# Key:
# human ROCKα/ROCKII mix = target: T1, human ROCKα/ROCKII mix (Homo sapiens, UniProt O75116); test: Biochemical assay for ROCK (fluorescence polarization, ROCK IMAP Kit)
# T1 construct: purchased Upstate Biotechnology 14-451
# Method: The compounds were tested for inhibition of human ROCKα/ROCKII mix.
# The inhibition assays were performed with a fluorescence polarization (FP) assay using the commercially available ROCK IMAP Kit from Molecular Devices (Product ID. No. R8093), essentially in accordance with the protocol supplied by the manufacturer. […] The enzyme mix ROCKα/ROCKII was obtained from Upstate Biotechnology (Product ID No 14-451).
# In summary, the compound was screened in the wells of a 384 well plate for enzymatic inhibition with concentrations varying from 100 μM to 0.3 nM using a stepwise 3 (or 2)-fold dilution.
# To perform the assay, 1 μl of a solution of the compound to be tested in DMSO (at each concentration) was added to 2 μl of a solution of the enzyme in 10 mM Tris-HCl , 10 mM MgCl2, 0.1% BSA, 0.05% NaN3, pH 7.2. The final concentration of the enzyme was 2.6 nM.
# After incubating for 30 minutes at room temperature, 2 μl of a mixture of ATP and the protein substrate in 10 mM Tris-HCl, 10 mM MgCl2, 0.1% BSA, 0.05% NaN3, pH 7.2 was added. The final concentration of the ATP was 10 μM and final concentration of protein substrate was 0.2 μM.
# After incubating for 60 minutes at room temperature, 12 μl of the IMAP Binding Solution (mix of the IMAP Binding Buffer A (1×) and the IMAP Binding Reagent (from the ROCK IMAP kit)) was added.
# The mixture thus obtained (total volume: 17 μl) was incubated for 60 minutes at room temperature, upon which the fluorescence polarization was measured using an automated plate reader (Perkin Elmer, Model Envision 2100-0010 HTS) with FP filters: excitation filter FITC FP 480 and emission filters FITC FP P-pol 535 and FITC FP S-pol 535 (Perkin-Elmer). The results were fitted to a curve using the XL-Fit algorithm and IC50 values were calculated for each fitted curve, again using the XL-Fit algorithm.
# PKC epsilon = target: T2, PKC epsilon (Homo sapiens, UniProt Q02156); test: Biochemical assay for PKC epsilon (fluorescence polarization, Protein Kinase C Assay Kit, Red); conditions: read-out: IC50 μM PKCε
# T2 construct: purchased Invitrogen P2282
# T2 sequence (Q02156 1-737): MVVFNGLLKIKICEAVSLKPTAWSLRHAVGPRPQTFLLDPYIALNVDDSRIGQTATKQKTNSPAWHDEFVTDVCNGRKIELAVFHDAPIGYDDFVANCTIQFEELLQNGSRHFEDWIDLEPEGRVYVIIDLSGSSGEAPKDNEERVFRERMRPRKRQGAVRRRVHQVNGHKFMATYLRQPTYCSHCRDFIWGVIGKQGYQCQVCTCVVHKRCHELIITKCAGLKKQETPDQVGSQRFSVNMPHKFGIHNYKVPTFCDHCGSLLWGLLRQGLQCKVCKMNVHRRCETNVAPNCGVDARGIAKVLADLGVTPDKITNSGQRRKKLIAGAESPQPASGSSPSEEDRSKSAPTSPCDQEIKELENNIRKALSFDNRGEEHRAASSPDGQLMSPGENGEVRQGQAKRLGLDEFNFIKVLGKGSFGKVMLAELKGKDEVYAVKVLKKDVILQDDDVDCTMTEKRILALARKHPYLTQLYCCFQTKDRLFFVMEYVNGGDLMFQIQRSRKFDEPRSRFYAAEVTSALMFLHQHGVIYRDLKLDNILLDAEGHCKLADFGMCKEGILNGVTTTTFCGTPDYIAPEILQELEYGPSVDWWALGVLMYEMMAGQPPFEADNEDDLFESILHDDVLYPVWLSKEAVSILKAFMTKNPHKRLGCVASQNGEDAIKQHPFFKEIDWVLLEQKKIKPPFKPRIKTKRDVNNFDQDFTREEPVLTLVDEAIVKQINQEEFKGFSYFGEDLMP
# Method: The compounds were tested for inhibition of PKC epsilon.
# The inhibition assays were performed with a fluorescence polarization (FP) assay using the commercially available Protein Kinase C Assay Kit, Red, from Invitrogen (Product ID. No. P2941), essentially in accordance with the protocol supplied by the manufacturer. […] The isozyme PKC epsilon was also obtained from Invitrogen (Product ID No. P2282).
# Staurosporine was used as a positive control (2 μM).
# To perform the assay, 2 μl of a solution of the compound to be tested in DMSO (at each concentration) was added to 6 μl of a solution of the enzyme in 10 mM HEPES, 5 mM dithiotreitol, 0.1% Triton X-100, pH 7.4. The final concentration of the enzymes was 10 ng/ml.
# After incubating for 30 minutes at room temperature, 4 μl of a mixture of ATP and the protein substrate in 60 mM HEPES (pH7.4), 15 mM MgCl2, 0.3 mM CaCl2, 0.06% NP40 was added.
# After incubating for 80 minutes at room temperature, 3 μl of a mix solution of 500 mM EDTA (stop solution) and the Rhodamine-based PKC Red Tracer (from the Protein Kinase C Assay Kit) in BGG/phosphate buffer (pH7.4) with 0.02% NaN3 and 0.1% Triton X-100 was added and 5 μl of a the Anti-Phosphoserine antibody (also from the Protein Kinase C Assay Kit) in BGG/phosphate buffer (pH7.4) with 0.02% NaN3.
# The results were fitted to a curve using the XL-Fit algorithm and […] were calculated for each fitted curve, again using the XL-Fit algorithm.
# [1] = Table 2, compounds of Formula XIII
# [2] = compounds of Formula XIV, Table 3
# T1 sequence (O75116 11-552 limits assumed): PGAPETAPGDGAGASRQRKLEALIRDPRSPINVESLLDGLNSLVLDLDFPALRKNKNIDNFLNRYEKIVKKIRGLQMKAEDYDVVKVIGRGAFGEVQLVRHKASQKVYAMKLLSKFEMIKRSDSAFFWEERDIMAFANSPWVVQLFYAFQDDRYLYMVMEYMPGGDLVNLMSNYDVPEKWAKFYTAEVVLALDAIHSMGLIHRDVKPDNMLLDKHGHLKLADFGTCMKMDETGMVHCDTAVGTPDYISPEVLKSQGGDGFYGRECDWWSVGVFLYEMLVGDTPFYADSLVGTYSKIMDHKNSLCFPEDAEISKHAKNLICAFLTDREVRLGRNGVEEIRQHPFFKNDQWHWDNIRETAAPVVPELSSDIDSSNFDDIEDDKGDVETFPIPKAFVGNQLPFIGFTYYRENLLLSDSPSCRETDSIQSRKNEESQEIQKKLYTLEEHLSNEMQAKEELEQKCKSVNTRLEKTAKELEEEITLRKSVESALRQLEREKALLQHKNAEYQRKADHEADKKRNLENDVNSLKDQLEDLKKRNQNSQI
Compound,IC50 (human ROCKα/ROCKII mix; [1]),IC50 (PKC epsilon; [1]),IC50 (human ROCKα/ROCKII mix; [2]),IC50 (PKC epsilon; [2]),further results
NC(CNC(=O)CCc1ccccc1)c1ccc(C(=O)Nc2ccncc2)cc1 (stereo not shown) [Compound 162],0.05 to 0.5 µM,0.5 to 5 µM,–,–,–
"CN(CC(N)c1ccc(C(=O)Nc2ccncc2)cc1)C(=O)C1CCSc2ccc(F)cc21 (stereo not shown) [Compound 518, 6-Fluoro-thiochroman-4-carboxylic acid {2-amino-2-[4-(pyridin-4-ylcarbamoyl)-phenyl]-ethyl}-methyl-amide]",–,–,–,–,IC50 (human ROCKα/ROCKII mix): 5 to 50 µM; IC50 (PKC epsilon): 5 to 50 µM
"Cc1cccc(CNC(=O)CC(N)c2ccc(C(=O)Nc3ccncc3)cc2)c1 (stereo not shown) [Compound 232, 4-[1-Amino-2-(3-methyl-benzylcarbamoyl)-ethyl]-N-pyridin-4-yl-benzamide]",–,–,0.05 to 0.5 µM,0.5 to 5 µM,–
"NC(CNC(=O)CNC(=O)c1ccco1)c1ccc(C(=O)Nc2ccncc2)cc1 (stereo not shown) [Compound 56, Furan-2-carboxylic acid ({2-amino-2-[4-(pyridin-4-ylcarbamoyl)-phenyl]-ethylcarbamoyl}-methyl)-amide]",0.05 to 0.5 µM,5 to 50 µM,–,–,–
"CC(C)(C(=O)N1CCCC1C(N)c1ccc(C(=O)Nc2ccncc2)cc1)c1ccc(F)c(Cl)c1 (stereo not shown) [Compound 606, 4-(Amino-{1-[2-(3-chloro-4-fluoro-phenyl)-2-methyl-propionyl]-pyrrolidin-2-yl}-methyl)-N-pyridin-4-yl-benzamide]",–,–,–,–,IC50 (human ROCKα/ROCKII mix): 0.5 to 5 µM; IC50 (PKC epsilon): 0.5 to 5 µM
"COc1ccc(OC)c(CCNC(=O)CC(N)c2ccc(C(=O)Nc3ccncc3)cc2)c1 (stereo not shown) [Compound 295, 4-{1-Amino-2-[2-(3,6-dimethoxy-phenyl)-ethylcarbamoyl]-ethyl}-N-pyridin-4-yl-benzamide]",–,–,0.05 to 0.5 µM,5 to 50 µM,–
"Cc1ccsc1C=NOCC(=O)NCC(N)c1ccc(C(=O)Nc2ccncc2)cc1 (stereo not shown) [Compound 61, 4-{1-Amino-2-[2-(3-methyl-thiophen-2-ylmethyleneaminooxy)-acetylamino]-ethyl}-N-pyridin-4-yl-benzamide]",0.5 to 5 µM,5 to 50 µM,–,–,–
"COc1cc(CCNC(=O)CC(N)c2ccc(C(=O)Nc3ccncc3)cc2)cc(OC)c1 (stereo not shown) [Compound 294, 4-{1-Amino-2-[2-(3,5-dimethoxy-phenyl)-ethylcarbamoyl]-ethyl}-N-pyridin-4-yl-benzamide]",–,–,0.05 to 0.5 µM,5 to 50 µM,–
"NC(CNC(=O)c1cc2ccccc2[nH]1)c1ccc(C(=O)Nc2ccncc2)cc1 (stereo not shown) [Compound 130, 1H-Indole-2-carboxylic acid {2-amino-2-[4-(pyridin-4-ylcarbamoyl)-phenyl]-ethyl}-amide]",0.5 to 5 µM,5 to 50 µM,–,–,–
4-[1-Amino-2-(4-thiophen-2- yl-benzylcarbamoyl)-ethyl]- N-pyridin-4-yl-benzamide [Compound 235],–,–,0.05 to 0.5 µM,5 to 50 µM,–
"NC(CC(=O)NCCc1ccc(F)cc1)c1ccc(C(=O)Nc2ccncc2)cc1 (stereo not shown) [Compound 307, 4-{1-amino-2-[2-(4-fluoro-phenyl)-ethylcarbamoyl]-ethyl}-N-pyridin-4-yl-benzamide]",–,–,0.05 to 0.5 µM,0.05 to 0.5 µM,–
"NC(c1ccc(C(=O)Nc2ccncc2)cc1)C1CCCN1C(=O)Cc1ccc(Cl)cc1Cl (stereo not shown) [Compound 591, 4-(Amino-{1-[2-(2,4-dichloro-phenyl)-acetyl]-pyrrolidin-2-yl}-methyl)-N-pyridin-4-yl-benzamide]",–,–,–,–,IC50 (human ROCKα/ROCKII mix): 0.5 to 5 µM; IC50 (PKC epsilon): 5 to 50 µM
"NC(CNC(=O)c1ccc2ncccc2c1)c1ccc(C(=O)Nc2ccncc2)cc1 (stereo not shown) [Compound 114, Quinoline-6-carboxylic acid {2-amino-2-[4-(pyridin-4-ylcarbamoyl)-phenyl]-ethyl}-amide]",0.5 to 5 µM,5 to 50 µM,–,–,–
"NC(CC(=O)N[C@H]1CCc2ccccc21)c1ccc(C(=O)Nc2ccncc2)cc1 (stereo partly drawn) [Compound 357, 4-[1-Amino-2-((S)-indan-1-ylcarbamoyl)-ethyl]-N-pyridin-4-yl-benzamide]",–,–,0.05 to 0.5 µM,0.5 to 5 µM,–
"NC(CNC(=O)c1ccc([N+](=O)[O-])o1)c1ccc(C(=O)Nc2ccncc2)cc1 (stereo not shown) [Compound 120, 5-Nitro-furan-2-carboxylic acid {2-amino-2-[4-(pyridin-4-ylcarbamoyl)-phenyl]-ethyl}-amide]",0.5 to 5 µM,0.5 to 5 µM,–,–,–
"NC(CC(=O)NCc1ccc(F)cc1Cl)c1ccc(C(=O)Nc2ccncc2)cc1 (stereo not shown) [Compound 261, 4-[1-Amino-2-(2-chloro-4-fluoro-benzylcarbamoyl)-ethyl]-N-pyridin-4-yl-benzamide]",–,–,0.05 to 0.5 µM,0.5 to 5 µM,–
"NC(CNC(=O)c1ccc2[nH]nnc2c1)c1ccc(C(=O)Nc2ccncc2)cc1 (stereo not shown) [Compound 127, 1H-Benzotriazole-5-carboxylic acid {2-amino-2-[4-(pyridin-4-ylcarbamoyl)-phenyl]-ethyl}-amide]",0.5 to 5 µM,5 to 50 µM,–,–,–
"4-[1-Amino-2-(3,4-dichloro- 6-methyl-benzylcarbamoyl)- ethyl}-N-pyridin-4-yl- benzamide [Compound 254]",–,–,0.05 to 0.5 µM,0.5 to 5 µM,–
"NC(CNC(=S)Nc1ccc(C(F)(F)F)cc1)c1ccc(C(=O)Nc2ccncc2)cc1 (stereo not shown) [Compound 16, 4-{1-amino-2-[3-(4-trifluoromethyl-phenyl)-thioureido]-ethyl}-N-pyridin-4-yl-benzamide]",–,–,–,–,IC50 (human ROCKα/ROCKII mix): 0.5 to 5 µM; IC50 (PKC epsilon): 0.5 to 5 µM
"CC(C)(C(=O)NCC(N)c1ccc(C(=O)Nc2ccncc2)cc1)c1ccc(F)c(Cl)c1 (stereo not shown) [Compound 382, 4-{1-Amino-2-[2-(3-chloro-4-fluoro-phenyl)-2-methyl-propionylamino]-ethyl}-N-pyridin-4-yl-benzamide]",0.05 to 0.5 µM,< 0.05 µM,–,–,–
"CCOCC(=O)NCC(N)c1ccc(C(=O)Nc2ccncc2)cc1 (stereo not shown) [Compound 62, 4-[1-amino-2-(2-ethoxy-acetylamino)-ethyl]-N-pyridin-4-yl-benzamide]",0.5 to 5 µM,5 to 50 µM,–,–,–
"NC(CC(=O)NCc1ccc(OC(F)(F)F)cc1)c1ccc(C(=O)Nc2ccncc2)cc1 (stereo not shown) [Compound 271, 4-[1-Amino-2-(4-trifluoromethoxy-benzylcarbamoyl)-ethyl]-N-pyridin-4-yl-benzamide]",–,–,0.05 to 0.5 µM,0.5 to 5 µM,–
"CC(C)=NOC(C)C(=O)NCC(N)c1ccc(C(=O)Nc2ccncc2)cc1 (stereo not shown) [Compound 59, 4-[1-Amino-2-(2-isopropylideneaminooxy-propionylamino)-ethyl]-N-pyridin-4-yl-benzamide]",0.5 to 5 µM,0.5 to 5 µM,–,–,–
